Experimental data taken from PubChem BioAssay (NCI).
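Dose response: 5 concentrations. Exposure: 48 h. Format: 96-well plates. Endpoint: linear interpolation; highest concentration if not reached. TGI marks complete inhibition of growth.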

Assays:
Experiment in all cases: DTP human tumour cell line panel, 48 h
[1] = system: 786-0 renal
[2] = system: A498 renal
[3] = system: A549 NSCLC
[4] = system: ACHN renal
[5] = system: BT-549 breast
[6] = system: CAKI-1 renal
[7] = system: CCRF-CEM leukemia
[8] = system: COLO 205 colon
[9] = system: DU-145 prostate
[10] = system: EKVX NSCLC
[11] = system: HCC-2998 colon
[12] = system: HCT-116 colon
[13] = system: HCT-15 colon
[14] = system: HL-60(TB) leukemia
[15] = system: HOP-62 NSCLC
[16] = system: HOP-92 NSCLC
[17] = system: HS 578T breast
[18] = system: HT29 colon
[19] = system: IGROV1 ovarian
[20] = system: K-562 leukemia
[21] = system: KM12 colon
[22] = system: LOX IMVI melanoma
[23] = system: M14 melanoma
[24] = system: MALME-3M melanoma
[25] = system: MCF7 breast
[26] = system: MDA-MB-231 breast
[27] = system: MDA-MB-435
[28] = system: MDA-N
[29] = system: MOLT-4 leukemia
[30] = system: NCI-H226 lung
[31] = system: NCI-H23 lung
[32] = system: NCI-H460 lung
[33] = system: NCI-H522 lung
[34] = system: NCI/ADR-RES ovarian
[35] = system: OVCAR-3 ovarian
[36] = system: OVCAR-4 ovarian
[37] = system: OVCAR-5 ovarian
[38] = system: OVCAR-8 ovarian
[39] = system: PC-3 prostate
[40] = system: RPMI-8226 leukemia
[41] = system: RXF 393 renal
[42] = system: SF-268 CNS
[43] = system: SF-295 CNS
[44] = system: SF-539 CNS
[45] = system: SK-MEL-2 melanoma
[46] = system: SK-MEL-28 melanoma
[47] = system: SK-MEL-5 melanoma
[48] = system: SK-OV-3 ovarian
[49] = system: SN12C renal
[50] = system: SNB-19 CNS
[51] = system: SNB-75 CNS
[52] = system: SR leukemia
[53] = system: SW-620 colon
[54] = system: T-47D breast
[55] = system: TK-10 renal
[56] = system: U251 CNS
[57] = system: UACC-257 melanoma
[58] = system: UACC-62 melanoma
[59] = system: UO-31 renal

Structure (SMILES): N#Cc1ccc(C(=O)/C=C/c2ccc(O)c(O)c2)cc1
- TGI [1]: > 52.9 µM
- TGI [2]: 31.9 µM
- TGI [3]: 31.8 µM
- TGI [4]: 31.8 µM
- TGI [5]: 25.3 µM
- TGI [6]: 29.6 µM
- TGI [7]: 14.3 µM
- TGI [8]: 30.5 µM
- TGI [9]: 30 µM
- TGI [10]: 31.8 µM
- TGI [11]: 28.2 µM
- TGI [12]: 22.8 µM
- TGI [13]: 30.1 µM
- TGI [14]: 19.8 µM
- TGI [15]: 32.4 µM
- TGI [16]: 29.6 µM
- TGI [17]: > 76.6 µM
- TGI [18]: 31.2 µM
- TGI [19]: 27 µM
- TGI [20]: 34 µM
- TGI [21]: 30.5 µM
- TGI [22]: 26.3 µM
- TGI [23]: 32.8 µM
- TGI [24]: 29.3 µM
- TGI [25]: 26 µM
- TGI [26]: 30.7 µM
- TGI [27]: 28.5 µM
- TGI [28]: 30.7 µM
- TGI [29]: 37.6 µM
- TGI [30]: 62.7 µM
- TGI [31]: 33 µM
- TGI [32]: 29.8 µM
- TGI [33]: 7.54 µM
- TGI [34]: > 65.8 µM
- TGI [35]: 29.3 µM
- TGI [36]: 25.7 µM
- TGI [37]: 33.5 µM
- TGI [38]: > 54.8 µM
- TGI [39]: 30 µM
- TGI [40]: 25.2 µM
- TGI [41]: 32.4 µM
- TGI [42]: 31.1 µM
- TGI [43]: 33.9 µM
- TGI [44]: 29.7 µM
- TGI [45]: 33.8 µM
- TGI [46]: 29 µM
- TGI [47]: 28.5 µM
- TGI [48]: > 57.7 µM
- TGI [49]: 28.9 µM
- TGI [50]: 29.3 µM
- TGI [51]: 36.6 µM
- TGI [52]: 6.27 µM
- TGI [53]: 26.2 µM
- TGI [54]: 31.2 µM
- TGI [55]: 27.6 µM
- TGI [56]: 26.2 µM
- TGI [57]: 30 µM
- TGI [58]: 32.5 µM
- TGI [59]: 25.1 µM

Structure (SMILES): CCOC(=O)[C@@H]1CCN2CN(c3ccc(OC)cc3)N=C(c3ccccc3)[C@@]12c1ccccc1
- TGI [1]: 51.7 µM
- TGI [2]: 53.5 µM
- TGI [3]: > 100 µM
- TGI [4]: 91.5 µM
- TGI [5]: 55.2 µM
- TGI [6]: > 100 µM
- TGI [7]: > 100 µM
- TGI [8]: 61.3 µM
- TGI [9]: 70.7 µM
- TGI [10]: > 100 µM
- TGI [11]: 67.1 µM
- TGI [12]: 40.2 µM
- TGI [13]: 80.6 µM
- TGI [14]: > 100 µM
- TGI [15]: 62.6 µM
- TGI [16]: 27.9 µM
- TGI [17]: 70.3 µM
- TGI [18]: 72.4 µM
- TGI [19]: 72.1 µM
- TGI [20]: > 100 µM
- TGI [21]: > 100 µM
- TGI [22]: 29.6 µM
- TGI [23]: 51.3 µM
- TGI [24]: 37.9 µM
- TGI [25]: 50 µM
- TGI [26]: > 100 µM
- TGI [27]: > 100 µM
- TGI [28]: > 100 µM
- TGI [29]: > 100 µM
- TGI [30]: 38.9 µM
- TGI [31]: 73.5 µM
- TGI [32]: > 100 µM
- TGI [33]: 49.5 µM
- TGI [34]: 67.9 µM
- TGI [36]: > 100 µM
- TGI [37]: > 100 µM
- TGI [38]: 61.3 µM
- TGI [39]: > 100 µM
- TGI [40]: 82.6 µM
- TGI [41]: 35.7 µM
- TGI [42]: > 100 µM
- TGI [43]: 77.1 µM
- TGI [45]: 46.1 µM
- TGI [46]: 56 µM
- TGI [47]: 30.5 µM
- TGI [48]: > 100 µM
- TGI [49]: 34.7 µM
- TGI [50]: > 100 µM
- TGI [51]: 57.7 µM
- TGI [52]: > 100 µM
- TGI [53]: > 100 µM
- TGI [54]: 74.6 µM
- TGI [55]: > 100 µM
- TGI [56]: 79.6 µM
- TGI [57]: 49.7 µM
- TGI [58]: 35 µM
- TGI [59]: 77.2 µM

Structure (SMILES): OC1[C@H](O)CN(OCc2ccccc2)C[C@@H]1O (stereo partly drawn)
- TGI [1]: > 100 µM
- TGI [2]: > 100 µM
- TGI [3]: > 100 µM
- TGI [4]: > 100 µM
- TGI [5]: > 100 µM
- TGI [6]: > 100 µM
- TGI [7]: > 100 µM
- TGI [8]: > 100 µM
- TGI [9]: > 100 µM
- TGI [10]: > 100 µM
- TGI [11]: > 100 µM
- TGI [12]: > 100 µM
- TGI [13]: > 100 µM
- TGI [14]: > 100 µM
- TGI [15]: > 100 µM
- TGI [16]: > 100 µM
- TGI [17]: > 100 µM
- TGI [18]: > 100 µM
- TGI [19]: > 100 µM
- TGI [20]: > 100 µM
- TGI [21]: > 100 µM
- TGI [22]: > 100 µM
- TGI [23]: > 100 µM
- TGI [24]: > 100 µM
- TGI [25]: > 100 µM
- TGI [26]: > 100 µM
- TGI [27]: > 100 µM
- TGI [28]: > 100 µM
- TGI [29]: > 100 µM
- TGI [30]: > 100 µM
- TGI [31]: > 100 µM
- TGI [32]: > 100 µM
- TGI [33]: > 100 µM
- TGI [34]: > 100 µM
- TGI [35]: > 100 µM
- TGI [36]: > 100 µM
- TGI [37]: > 100 µM
- TGI [38]: > 100 µM
- TGI [39]: > 100 µM
- TGI [40]: > 100 µM
- TGI [41]: > 100 µM
- TGI [42]: > 100 µM
- TGI [43]: > 100 µM
- TGI [44]: > 100 µM
- TGI [45]: > 100 µM
- TGI [46]: > 100 µM
- TGI [47]: > 100 µM
- TGI [49]: > 100 µM
- TGI [50]: > 100 µM
- TGI [51]: > 100 µM
- TGI [52]: > 100 µM
- TGI [53]: > 100 µM
- TGI [54]: > 100 µM
- TGI [55]: > 100 µM
- TGI [56]: > 100 µM
- TGI [57]: > 100 µM
- TGI [58]: > 100 µM
- TGI [59]: > 100 µM

Structure (SMILES): C=C1C(=O)O[C@H]2[C@H](OC(C)=O)[C@@H](C)CCC/C(C)=C/CC[C@@]3(C)O[C@@H]3C[C@@H]12
- TGI [1]: 3.56 µM
- TGI [2]: 8.76 µM
- TGI [3]: 34.6 µM
- TGI [4]: 3.4 µM
- TGI [5]: 8.76 µM
- TGI [6]: 5.37 µM
- TGI [7]: 3.76 µM
- TGI [8]: 16.5 µM
- TGI [9]: 6.87 µM
- TGI [10]: 8.79 µM
- TGI [11]: 11.6 µM
- TGI [12]: 6.83 µM
- TGI [13]: 10.1 µM
- TGI [14]: 2.38 µM
- TGI [15]: 43.6 µM
- TGI [16]: 5.54 µM
- TGI [17]: 13.2 µM
- TGI [18]: 8.05 µM
- TGI [19]: 18.4 µM
- TGI [20]: > 100 µM
- TGI [21]: 18.8 µM
- TGI [22]: 3.9 µM
- TGI [23]: > 40.4 µM
- TGI [24]: 30.6 µM
- TGI [25]: 7.71 µM
- TGI [26]: 10.6 µM
- TGI [27]: 15.1 µM
- TGI [28]: 10.6 µM
- TGI [29]: 10.1 µM
- TGI [30]: 3.32 µM
- TGI [31]: 10.8 µM
- TGI [32]: 19.7 µM
- TGI [33]: 3.9 µM
- TGI [34]: 4 µM
- TGI [35]: 16.2 µM
- TGI [36]: 8.76 µM
- TGI [37]: 27.6 µM
- TGI [38]: 2.63 µM
- TGI [39]: > 47.5 µM
- TGI [40]: 6.5 µM
- TGI [41]: 5.08 µM
- TGI [42]: 14 µM
- TGI [43]: 28.5 µM
- TGI [44]: 13.9 µM
- TGI [45]: 19.5 µM
- TGI [46]: 11.1 µM
- TGI [47]: 15.5 µM
- TGI [48]: 30.5 µM
- TGI [49]: 4.05 µM
- TGI [50]: 34 µM
- TGI [51]: 21.2 µM
- TGI [52]: 6.02 µM
- TGI [53]: > 23.1 µM
- TGI [54]: 3.62 µM
- TGI [55]: 5 µM
- TGI [56]: 21.7 µM
- TGI [57]: 11.7 µM
- TGI [58]: 9.43 µM
- TGI [59]: 7.51 µM
